Source: patent US20220144812A1, “QUINOLINE DERIVATIVES AND THEIR USE FOR THE TREATMENT OF CANCER” (Epizyme, Inc., priority 2019, published 2022)
Read-outs that look alike come from different tables or passages of the source.

What was measured:
[1] = test system: H3K18Ac in HB-CLS-2 cells; experiment: H3K18AC in-cell western (ICW) assay; format: cell-based; conditions: H3K18Ac in-cell western; read-out: CREBBP ICW IC50
Summary of the method: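 In-cell western: after methanol fixation, blocking, overnight 4° C anti-H3K18Ac staining, then 800CW secondary plus DRAQ5 for DNA content, integrated intensities were scanned at 800 and 700 nm. Before this, compound exposure lasted 2 hr at 37° C in HB-CLS-2 cells plated 16–24 hours earlier. Values expressed as IC50 (μM).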

EP300 (P300(1048-1664)) = molecular target: T1, EP300 (P300(1048-1664)) (Homo sapiens, UniProt Q09472); experiment: Biochemical assay for EP300, SAMDI; conditions: EP300, SAMDI; read-out: EP300 Biochemistry IC50
T1 construct: P300(1048-1664)
T1 sequence (Q09472 1048-1664): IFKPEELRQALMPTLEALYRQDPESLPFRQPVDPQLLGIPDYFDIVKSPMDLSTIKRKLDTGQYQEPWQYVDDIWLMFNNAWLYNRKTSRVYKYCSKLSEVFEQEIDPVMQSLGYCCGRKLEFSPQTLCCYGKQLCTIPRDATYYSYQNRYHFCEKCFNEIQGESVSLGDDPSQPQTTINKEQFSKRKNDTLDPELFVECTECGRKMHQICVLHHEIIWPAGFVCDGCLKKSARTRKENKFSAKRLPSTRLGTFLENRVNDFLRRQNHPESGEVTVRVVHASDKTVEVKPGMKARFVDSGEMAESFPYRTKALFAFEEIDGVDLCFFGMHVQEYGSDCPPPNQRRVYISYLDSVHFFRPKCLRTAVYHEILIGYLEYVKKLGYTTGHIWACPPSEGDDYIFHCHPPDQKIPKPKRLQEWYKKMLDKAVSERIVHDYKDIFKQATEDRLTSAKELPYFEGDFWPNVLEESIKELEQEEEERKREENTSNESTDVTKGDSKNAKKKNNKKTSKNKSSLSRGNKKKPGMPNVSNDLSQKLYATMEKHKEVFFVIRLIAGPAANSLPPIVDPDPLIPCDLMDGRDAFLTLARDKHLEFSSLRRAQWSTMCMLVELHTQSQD
Text: The following example describes materials and methods relating to a biochemical assay for EP300. IC50 values (micromolar (μM)) are summarized in Table 1, Table 2, and Table 3 under the column labeled: “EP300 Biochemistry IC50 (micromolar).”

CREBBP (1084-1701) = molecular target: T2, CREBBP (1084-1701) (Homo sapiens, UniProt Q92793); experiment: Biochemical assay for CREBBP (1084-1701), SAMDI; conditions: SAMDI, read-out: CREBBP Biochemistry IC50
T2 construct: measured in the following biochemical assay using CREBBP (1084-1701); purchased
T2 sequence (Q92793 1084-1701): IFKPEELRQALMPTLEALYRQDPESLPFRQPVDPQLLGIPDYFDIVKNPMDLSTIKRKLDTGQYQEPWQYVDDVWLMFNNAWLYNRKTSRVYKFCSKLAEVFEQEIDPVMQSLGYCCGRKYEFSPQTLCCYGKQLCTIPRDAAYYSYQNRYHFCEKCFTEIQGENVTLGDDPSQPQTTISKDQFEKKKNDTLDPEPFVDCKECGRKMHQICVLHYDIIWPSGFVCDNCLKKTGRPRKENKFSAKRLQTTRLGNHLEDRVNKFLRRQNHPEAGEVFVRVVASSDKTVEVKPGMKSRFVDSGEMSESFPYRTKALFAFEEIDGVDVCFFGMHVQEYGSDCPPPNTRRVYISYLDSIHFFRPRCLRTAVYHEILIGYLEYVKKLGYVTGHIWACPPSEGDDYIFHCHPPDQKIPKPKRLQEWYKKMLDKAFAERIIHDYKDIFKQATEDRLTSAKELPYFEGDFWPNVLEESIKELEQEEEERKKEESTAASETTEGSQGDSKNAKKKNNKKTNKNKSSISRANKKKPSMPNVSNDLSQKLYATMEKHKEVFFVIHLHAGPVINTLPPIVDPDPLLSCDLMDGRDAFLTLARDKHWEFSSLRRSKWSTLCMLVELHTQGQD
Summary of the method: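 Acetyltransferase activity measured by SAMDI mass spectrometry after capture on biochip. Enzyme sat with compound 30 min at RT before acetyl-CoA and biotinylated H3 11-25 (K14R, K23R) peptide were added for 30 min at RT. Formic acid quench, bicarbonate neutralisation; IC50 values reported.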

647V cells = experiment: High throughput proliferation (HTP) assay; format: cell-based; conditions: high throughput proliferation, read-out: CREBBP HTP IC50
Summary of the method: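 Proliferation IC50 (micromolar) derived from a 7-day CellTiter-Glo viable-cell readout in 647V cells exposed, in triplicate, to rising compound concentrations; cells grown in DMEM plus 15% heat-inactivated FBS at 37° C under 5% CO2.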

SMILES | IC50 [1] [nM] | IC50 (EP300 (P300(1048-1664))) [nM] | IC50 (CREBBP (1084-1701)) [nM] | IC50 (647V cells; Homo sapiens, 647-V) [nM] | IC50 (647V cells) [nM]
CCn1ncc(CN(C)C(=O)c2cc(-c3cn(CCNC)cn3)nc3ccc(Cl)cc23)c1C [Compound 73] | 1000 | 360 | 820 |  | 1300
CCn1ncc(CN(C)C(=O)c2nc(-c3cc(C(=O)NCCCN4CCCC4)[nH]n3)nc3ccc(Cl)cc23)c1C [Compound 75] | 1000 | 54 | 130 | 510 | 
CCn1ncc(CN(C)C(=O)c2nc(-c3cc(C)cc(NC4CCOCC4)c3)nc3ccc(Cl)cc23)c1C [Compound 78] | 1100 | 66 | 67 | 1200 | 
CCn1ncc(CN(C)C(=O)c2nc(-c3ccc(NCCNC)c(C)n3)nc3ccc(Cl)cc23)c1C [Compound 79] | 1200 | 2100 | 670 | 850 | 
CCn1ncc(CN(C)C(=O)c2nc(-c3cc(C(=O)NCCN4CCCC4)[nH]n3)nc3ccc(Cl)cc23)c1C [Compound 80] | 1200 | 690 | 1200 | 1400 | 
CCn1ncc(CN(C)C(=O)c2nc(-c3cccc(Cl)c3)nc3c(CNC)cc(Cl)cc23)c1C [Compound 85] | 1300 | 400 | 180 | 1300 | 
CCn1ncc(CN(C)C(=O)c2nc(-c3ccc4nc[nH]c4c3Cl)nc3ccc(COC)cc23)c1C [Compound 89] | 1600 | 1000 | 180 | 1200 | 
CCn1ncc(CN(C)C(=O)c2cc(-c3csc(C)n3)nc3ccc(Cl)cc23)c1C [Compound 90] | 1600 | 210 | 340 |  | 1500
CCn1ncc(CN(C)C(=O)c2nc(-c3ccc(OCCCN(C)C(=O)OC(C)(C)C)c(C)c3Cl)nc3ccc(Cl)cc23)c1C [Compound 93] | 1700 | 68 | 140 | 1200 | 
CCn1ncc(CN(C)C(=O)c2nc(-c3cc(C)cc(NCCN(C)C(=O)OC(C)(C)C)c3)nc3ccc(Cl)cc23)c1C [Compound 99] | 2000 | 2600 | 2200 | 2100 | 
CCn1ncc(CN(C)C(=O)c2nc(-c3ccc4nc(C)n(C(=O)OC(C)(C)C)c4c3)nc3ccc(Cl)cc23)c1C [Compound 104] | 2200 | 13000 | 9200 | 230 | 
CCn1ncc(CN(C)C(=O)c2nc(-c3cc(C#N)cc(NCCN(C)C(=O)OC(C)(C)C)c3)nc3ccc(Cl)cc23)c1C [Compound 105] | 2400 | 2300 | 3300 | 1800 | 
CCn1ncc(CN(C)C(=O)c2nc(-c3ccc(OCCN(C)S(C)(=O)=O)c(OC)c3)nc3ccc(Cl)cc23)c1C [Compound 114] | 2800 | 4300 | 5200 | 2800 | 
CCn1ncc(CN(C)C(=O)c2nc(-c3cc(Cl)cc(NCCCN(C)C(=O)OC(C)(C)C)c3)nc3ccc(Cl)cc23)c1C [Compound 115] | 2800 | 110 | 160 | 4400 | 
CCn1ncc(CN(C)C(=O)c2nc(-c3ccc(OCCNC(=O)OC(C)(C)C)c(Cl)c3)nc3ccc(Cl)cc23)c1C [Compound 117] | 3000 | 4300 | 270 | 2400 | 
CCn1ncc(CN(C)C(=O)c2nc(-c3cc(Cl)cc(NCCN(C)C(=O)OC(C)(C)C)c3)nc3ccc(Cl)cc23)c1C [Compound 121] | 3500 | 860 | 410 | 3800 | 

More lines, main results first:

IC50 [1] [nM] | IC50 (EP300 (P300(1048-1664))) [nM] | IC50 (CREBBP (1084-1701)) [nM] | SMILES | IC50 (647V cells; Homo sapiens, 647-V) [nM] | IC50 (647V cells) [nM]
880 | 610 | 100 | CCn1ncc(CN(C)C(=O)c2nc(-c3cc(C)cc(CNC)c3)nc3ccc(Cl)cc23)c1C [Compound 69] | 420 | 
1000 | 1100 | 2100 | CCn1ncc(CN(C)C(=O)c2cc(-c3ccc(NC(=O)CNC)c(C)n3)nc3ccc(Cl)cc23)c1C [Compound 74] | 1500 | 
1100 | 180 | 28 | CCn1ncc(CN(C)C(=O)c2nc(-c3ccc(OCCN)c(C)c3)nc3ccc(Cl)cc23)c1C [Compound 76] | 840 | 
1100 | 1300 | 1600 | CCn1ncc(CN(C)C(=O)c2nc(-c3ccnc(N)c3)nc3ccc(Cl)cc23)c1C [Compound 77] | 760 | 
1200 | 460 | 100 | CCn1ncc(CN(C)C(=O)c2nc(-c3cc(Cl)cc(CNC)c3)nc3ccc(Cl)cc23)c1C [Compound 82] | 580 | 
1300 | 2500 | 820 | CCn1ncc(CN(C)C(=O)c2nc(-c3ccc(OCCCNC)c(OC)c3)nc3ccc(Cl)cc23)c1C [Compound 84] | 850 | 
1400 | 880 | 840 | CCn1ncc(CN(C)C(=O)c2nc(-c3ccnc(Cl)c3)nc3ccc(NC)cc23)c1C [Compound 87] | 1400 | 
1700 | 1500 | 2100 | CCn1ncc(CN(C)C(=O)c2cc(-c3ccnc(N)c3)nc3ccc(Cl)cc23)c1C [Compound 94] | 1500 | 
1900 | 1500 | 740 | CCn1ncc(CN(C)C(=O)c2nc(-c3ccc(OCCOC)cc3Cl)nc3ccc(Cl)cc23)c1C [Compound 96] | 1800 | 
2100 | 6300 | 11000 | CCn1ncc(CN(C)C(=O)c2nc(-c3cn[nH]c3C)nc3ccc(Cl)cc23)c1C [Compound 100] | 1600 | 
2100 | 4300 | 4000 | CCn1ncc(CN(C)C(=O)c2nc(-c3ccc(OCCO)c(OC)c3)nc3ccc(Cl)cc23)c1C [Compound 102] | 2300 | 
2500 | 590 | 1100 | CC1CCCc2c(CN(C)C(=O)c3cc(-c4cccc(Cl)c4)nc4ccc(Cl)cc34)cnn21 (stereo not shown) [Compound 107] | 6200 | 
2500 | 930 | 970 | CCn1ncc(CN(C)C(=O)c2nc(-c3ccc(OCCOC)c(Cl)c3)nc3ccc(Cl)cc23)c1C [Compound 108] | 2200 | 
2500 | 1400 | 3900 | CCn1ncc(CN(C)C(=O)c2nc(-c3cnc[nH]3)nc3ccc(Cl)cc23)c1C [Compound 109] | 3500 | 
2600 | 4400 | 3200 | CCn1ncc(CN(C)C(=O)c2nc(-c3ccc(OCCCNC)cc3)nc3ccc(Cl)cc23)c1C [Compound 110] | 1400 | 
2600 | 4700 | 6400 | CCn1ncc(CN(C)C(=O)c2nc(-c3ccc(OCCO)c(F)c3)nc3ccc(Cl)cc23)c1C [Compound 111] | 2400 | 
2700 | 730 | 1300 | CCn1ncc(CN(C)C(=O)c2nc(-c3ccc(NCCNC)cn3)nc3ccc(Cl)cc23)c1C [Compound 112] | 2100 | 
2800 | 1500 | 4800 | CCn1ncc(CN(C)C(=O)c2cc(-c3ccc(NCCN(C)C(=O)OC(C)(C)C)cn3)nc3ccc(Cl)cc23)c1C [Compound 113] | 6700 | 
2900 | 6900 | 3400 | CCn1ncc(CN(C)C(=O)c2nc(-c3cc(CNC)ccc3C)nc3ccc(Cl)cc23)c1C [Compound 116] | 1900 | 
3300 | 1300 | 4500 | CCn1ncc(CN(C)C(=O)c2cc(-c3cn(C)cn3)nc3ccc(Cl)cc23)c1C [Compound 119] | 690 | 
3600 | 4300 | 4500 | CCn1ncc(CN(C)C(=O)c2cc(-c3ccc(OCC(=O)NC)c(OC)c3)nc3ccc(Cl)cc23)c1C [Compound 122] | 2100 | 
